Values after ≈ are worked out from the molar mass of the structure shown. Like-named read-outs stand apart in the source and are kept apart here. Where a SMILES comes first, the peptide text is derived from it. Bridges are numbered along the chain shown (N, C = ends). The star is where a group is joined. Octanoyl = CCCCCCCC(=O)*
Assays:
[1] = system: E. coli (Ec, ATCC 25922); assay: microbe, parasite or virus in culture; assay type: cell-based, Escherichia coli; conditions: for MIC: Escherichia coli
Procedure: (§1) All cyclic and linear peptides were screened for antibacterial activity against four Gram-positive strains: B. subtilis (Bs, ATCC 23857), C. glutamicum (Cg, ATCC 13032), S. aureus (Sa, ATCC 9144) and S. epidermidis RP62A (Se, ATCC 35984), and two Gram-negative strains: E. coli (Ec, ATCC 25922) and P. aeruginosa (Pa, ATCC 27853). The activity was assessed using a broth microdilution assay according to a modified CLSI-based method. Briefly, overnight bacterial cultures were grown in Mueller–Hinton (MH) broth medium (Difco Laboratories, Detroit, MI, USA) for 2 h at room temperature. The optical density (OD600) was measured, and the bacterial suspensions were adjusted to 2.5–3 × 10^4 CFU/mL in MH medium. The bacterial suspension (50 µL) was distributed in 96-well plates (Nunc, Roskilde, Denmark) preloaded with two-fold dilution series (256 to 1 µg/mL) of peptide solutions (50 µL), giving a final well volume of 100 µL. The microplates were incubated in an EnVision 2103 microplate reader (PerkinElmer, Llantrisant, UK) at 35 °C, with OD595 recorded every hour for 24 h. MIC was defined as the lowest concentration of peptides showing an optical density less than 10% of the negative (growth) control, consisting of bacterial suspension and water. Polymyxin B sulfate (Sigma-Aldrich, St. Louis, MO, USA) and chlorhexidine acetate (CHX, Fresenius Kabi, Halden, Norway), both with concentrations ranging from 12.5 to 0.09 μg/mL, served as positive (growth inhibition) controls. All peptides were tested in triplicate.

[2] = system: B. subtilis (Bs, ATCC 23857); assay: microbe, parasite or virus in culture; assay type: cell-based, Bacillus subtilis
Procedure: as §1

[3] = system: C. albicans (Ca, ATCC 10231); assay: microbe, parasite or virus in culture; assay type: cell-based, Candida albicans
Procedure: (§2) The synthesized peptides were screened for antifungal activity against the molds A. pullulans (Ap) and Rhodotorula sp. (Rh) (both obtained from Professor Arne Tronsmo, The Norwegian University of Life Sciences, Ås, Norway) and the yeast C. albicans (Ca, ATCC 10231) as previously described. In short, fungal spores were grown in potato dextrose broth media (Difco) containing 2% D(+)-glucose (Merck, Darmstadt, Germany) at 25–30 °C while shaking at 200 rpm overnight. The cultures were diluted with a dextrose media containing glucose to a concentration of approx. 4 × 10^5 spores/mL. Aliquots of the cultures (50 µL) were transferred to 96 well microtiter plates preloaded with the synthetic peptides (50 µL) in two-fold serial dilutions (256 to 1 µg/mL). Polymyxin B and CHX (both with concentrations ranging from 12.5 to 0.09 μg/mL) served as positive antibiotic controls. The microtiter plates containing the fungal spores and the test peptides were incubated at room temperature for 48 h and OD600 was recorded using a Synergy H1 Hybrid microplate reader system (BioTek, Winooski, VT, USA). MIC was defined as the lowest peptide concentration showing an optical density less than 10% of the negative (growth) control. All experiments were performed in triplicate.

[4] = system: Rhodotorula sp. (Rh); assay: microbe, parasite or virus in culture; assay type: cell-based; conditions: 48 h
Procedure: as §2

[5] = system: S. aureus (Sa, ATCC 9144); assay: microbe, parasite or virus in culture; assay type: cell-based, Staphylococcus aureus
Procedure: as §1

[6] = system: P. aeruginosa (Pa, ATCC 27853); assay: microbe, parasite or virus in culture; assay type: cell-based, Pseudomonas aeruginosa
Procedure: as §1

[7] = system: S. epidermidis RP62A (Se, ATCC 35984); assay: microbe, parasite or virus in culture; assay type: cell-based, Staphylococcus epidermidis
Procedure: as §1

[8] = system: A. pullulans (Ap); assay: microbe, parasite or virus in culture; assay type: cell-based, Aurobasidium pollulans; conditions: 48 h
Procedure: as §2

[9] = system: C. glutamicum (Cg, ATCC 13032); assay: microbe, parasite or virus in culture; assay type: cell-based, Corynebacterium glutamicum
Procedure: as §1

[10] = system: E. coli NR698 (outer membrane permeable mutant, imp4213); assay: microbe, parasite or virus in culture; conditions: for MIC E. coli NR698 (mutant): MC4100 NR698 imp4213, deficient outer membrane; for MIC: Escherichia coli, read-out: MIC E. coli NR698 (mutant)
Procedure: as §1
(§3) MIC values were determined for all cyclic peptides against two E. coli strains: wild type (WT) MC4100 and the hyperpermeable variant NR698, having a deficient outer membrane. The NR698 strain, containing lptD4213/imp4213 mutation, was kindly provided by M. Grabowicz (Emory University School of Medicine, Rollins Research Center, Atlanta, GA, USA). The assay was performed in the same way as previously described for the antibacterial MIC assay.

[11] = system: E. coli MC4100 (wild type, WT); assay: microbe, parasite or virus in culture; conditions: for MIC: Escherichia coli, read-out: MIC E. coli MC4100 (WT)
Procedure: as §1, §3

[12] = system: fungi (A. pullulans, C. albicans, Rhodotorula sp.); assay: Antifungal MIC assay, all fungi together (range or geometric mean); assay type: cell-based; conditions: Table S3; MIC >128 set to 128
Procedure: as §2

[13] = system: all bacterial strains; assay: Antibacterial MIC assay, all bacterial strains together (range or geometric mean); assay type: cell-based; conditions: for GM (geometric mean of the MIC values against all bacterial strains): Table 1, six bacterial strains; for GM of MIC Tot. bact.: Table S3, all bacterial test strains, MIC >256 set to 256
Procedure: The selectivity index (SI) of the peptides towards bacteria over eukaryotic cells was calculated using the geometric mean (GM) of the MIC values against all bacterial test strains, according to the method by Orlov et al.. The SI for each peptide was determined as the ratio of the RBC-EC50 value by the corresponding GM value. Larger SI values indicate greater selectivity for microbial cells. […] In general, the SI was higher against the Gram-positive bacteral strains than the Gram-negative strains. (Table S3). Overall, peptides displaying EC50 < 100 µg/mL were considered too haemolytic to be of interest for further exploration.
as §1

[14] = system: Gram-negative bacterial strains (E. coli and P. aeruginosa); assay: Antibacterial MIC assay, Gram-negative strains together (range or geometric mean); assay type: cell-based; conditions: Table S3; MIC >256 set to 256
Procedure: as §1

[15] = system: human red blood cells (RBC); assay: Haemolytic activity assay; assay type: cell-based
Procedure: The synthetized lipopeptides were screened for haemolytic activity against human red blood cells (RBC), in concentrations ranging from 500 to 3.9 μM, following a previously described protocol. In brief, haemolysis was determined using a heparinizied (10 IU/mL) fraction of freshly drawn human blood. A second fraction of blood, which was collected in test tubes containing ethylenediaminetetraacetic acid (EDTA, Vacutest, KIMA, Arzergrande, Italy), was used for determination of the hematocrit (hct). Plasma was removed from heparinized blood by washing three times with prewarmed phosphate-buffered saline (PBS) before being adjusted to a hematocrit of 4%. Peptides dissolved in dimethyl sulfoxide (DMSO) were further diluted with PBS to a final DMSO content of ≤1%. Triton X-100 (Sigma-Aldrich, St. Louis, MO, USA), used at a final concentration of 0.1%, served as a positive control for 100% haemolysis, whereas 1% DMSO in PBS buffer served as a negative control where no toxicity was detected. Duplicates of test solutions and erythrocytes, with 1% hct final concentration, were prepared in a 96-well polypropylene V-bottom plate (Nunc, Fischer scientific, Oslo, Norway). They were incubated under agitation at 37 °C and 800 rpm for 1 h. After centrifugation (5 min, 3000× g), 100 µL from each well were transferred to a flat-bottomed 96-well plate and absorbance was measured at 545 nm with a microplate reader (SpectraMax 190, Molecular Devices, San Jose, CA, USA). After subtracting PBS background, the percentage of haemolysis was calculated as the ratio of the absorbance in the peptide-treated and surfactant-treated samples. Three independent experiments were performed, and EC50 (the concentration giving 50% haemolysis) values are presented as averages.

[16] = system: Gram-positive bacterial strains; conditions: Table S3; MIC >256 set to 256
Procedure: as §1

[17] = ATCC25922, Table 2, laboratory strain, read-out: MIC E. coli ATCC 25922 (from Table 1)

Row | Compound | MIC E. coli NR698 (mutant) [10] | MIC [1, 17] | MIC [10] | MIC [11] | GM of MIC Fungi [12] | Antimicrobial Activity (MIC) Gram − Ec ([1]; ATCC 25922, 24 h) | GM (geometric mean of the MIC values against all bacterial strains) [13] | GM of MIC Tot. bact. [13] | Antimicrobial Activity (MIC) Gram + Bs ([2]; ATCC 23857, 24 h) | GM of MIC G- [14] | Antimicrobial Activity (MIC) Fungi Ca ([3]; ATCC 10231, 48 h) | Antimicrobial Activity (MIC) Fungi Rh [4] | Antimicrobial Activity (MIC) Gram + Sa ([5]; ATCC 9144, 24 h) | Antimicrobial Activity (MIC) Gram − Pa ([6]; ATCC 27853, 24 h) | Antimicrobial Activity (MIC) Gram + Se ([7]; ATCC 35984, 24 h) | Antimicrobial Activity (MIC) Fungi Ap [8] | GM of MIC G+ [16] | Antimicrobial Activity (MIC) Gram + Cg ([9]; ATCC 13032, 24 h) | other results
1 | Polymyxin B [reference compound] | 0.2 µg/mL |  |  |  |  |  |  |  |  |  |  |  |  |  |  |  |  |  | Antimicrobial Activity (MIC) Gram − Ec ([1]; E. coli ATCC 25922, 24 h): 3.1 µg/mL; MIC E. coli ATCC 25922 (from Table 1) ([1]; Table 2, laboratory strain): 3.1 µg/mL; Antimicrobial Activity (MIC) Gram + Bs ([2]; B. subtilis ATCC 23857, 24 h): 3.1 µg/mL; Antimicrobial Activity (MIC) Fungi Ca ([3]; C. albicans ATCC 10231, 48 h): 12.5 µg/mL; Antimicrobial Activity (MIC) Fungi Rh ([4]; Rhodotorula sp.): 3.1 µg/mL; Antimicrobial Activity (MIC) Gram + Sa ([5]; S. aureus ATCC 9144, 24 h): 12.5 µg/mL; Antimicrobial Activity (MIC) Gram − Pa ([6]; P. aeruginosa ATCC 27853, 24 h): 3.1 µg/mL; Antimicrobial Activity (MIC) Gram + Se ([7]; S. epidermidis RP62A ATCC 35984, 24 h): 6.3 µg/mL; Antimicrobial Activity (MIC) Fungi Ap ([8]; A. pullulans): 3.1 µg/mL; Antimicrobial Activity (MIC) Gram + Cg ([9]; C. glutamicum ATCC 13032, 24 h): 3.1 µg/mL; MIC E. coli MC4100 (WT) ([11]; wild type): 0.8 µg/mL
2 | O=C(N[C@H](CO)[C@H](O)c1ccc([N+](=O)[O-])cc1)C(Cl)Cl [Chloramphenicol, reference compound] |  | 1.8 µg/mL (≈ 5.57 µM) | 3.1 µg/mL (≈ 9.59 µM) | 12.5 µg/mL (≈ 38.7 µM) |  |  |  |  |  |  |  |  |  |  |  |  |  |  | 
3 | CN[C@H](CC(C)C)C(=O)N[C@H]1C(=O)N[C@@H](CC(N)=O)C(=O)N[C@H]2C(=O)N[C@H]3C(=O)N[C@H](C(=O)N[C@H](C(=O)O)c4cc(O)cc(O)c4-c4cc3ccc4O)[C@H](O)c3ccc(c(Cl)c3)Oc3cc2cc(c3O[C@@H]2O[C@H](CO)[C@@H](O)[C@H](O)[C@H]2O[C@H]2C[C@](C)(N)[C@H](O)[C@H](C)O2)Oc2ccc(cc2Cl)[C@H]1O [Vancomycin, reference compound] |  |  | 0.3 µg/mL (≈ 0.207 µM) | 64 µg/mL (≈ 44.2 µM) |  |  |  |  |  |  |  |  |  |  |  |  |  |  | MIC ([1]; ATCC25922, read-out: MIC E. coli ATCC 25922 (from Table 1)): 125 µg/mL (≈ 86.3 µM)
4 | CCCCCCCC(=O)N[C@@H](CS)C(=O)NCC(=O)N[C@@H](CCCCN)C(=O)N[C@@H](CCCCN)C(=O)N1CCC[C@H]1C(=O)NCC(=O)NCC(=O)N[C@@H](Cc1c[nH]c2ccccc12)C(=O)N[C@@H](CCCCN)C(=O)N[C@@H](CS)C(=O)N[C@@H](CCCCN)C(=O)N[C@@H](CC(C)C)C(N)=O [Peptide C8-Turg-1, C8- CGKKPGGWKC KL-NH2] (Octanoyl-CGKKPGGWKCKL-NH2) |  |  |  |  | 40 µg/mL | 32 µg/mL | 29 µg/mL | 29 µg/mL | 8 µg/mL | 64 µg/mL | 128 µg/mL | 16 µg/mL | 128 µg/mL | 128 µg/mL | 32 µg/mL | 32 µg/mL | 19 µg/mL | 4 µg/mL | Selectivity index (SI) G- ([15]; Table S3, EC50/GM of Gram-negative strains, highest tested concentration used where EC50 above it): > 15; Selectivity index (SI) G+ ([15]; Table S3, EC50/GM of Gram-positive strains, highest tested concentration used where EC50 above it): > 50; Selectivity index (SI) Fungi ([15]; Table S3, EC50/GM of fungi, highest tested concentration used where EC50 above it): > 23; SI (selectivity index = EC50/GM) ([15]; haemolytic EC50 over GM of MIC against all bacterial strains, Table 1): >33; RBC Tox. (EC50), haemolytic activity ([15]; human RBC, 1 h, 37 °C, concentration giving 50% haemolysis): >943 µg/mL
5 | CC1(C)S[C@@H]2[C@H](NC(=O)[C@H](N)c3ccccc3)C(=O)N2[C@H]1C(=O)O [Ampicillin, reference compound] |  | 8 µg/mL (≈ 22.9 µM) |  | 8 µg/mL (≈ 22.9 µM) |  |  |  |  |  |  |  |  |  |  |  |  |  |  | 
6 | CC(C)C[C@H](NC(=O)[C@H](CCCCN)NC(=O)[C@@H]1CSSC[C@H](N)C(=O)NCC(=O)N[C@@H](CCCCN)C(=O)N[C@@H](CCCCN)C(=O)N2CCC[C@H]2C(=O)NCC(=O)NCC(=O)N[C@@H](Cc2c[nH]c3ccccc23)C(=O)N[C@@H](CCCCN)C(=O)N1)C(N)=O [cTurg-1] (H-CGKKPGGWKCKL-NH2; disulfide 1-10; N-terminus assumed) | 64 µg/mL (≈ 49.2 µM) |  |  |  | 64 µg/mL | >256 µg/mL | 161 µg/mL | 161 µg/mL | 256 µg/mL | 256 µg/mL | 128 µg/mL | 64 µg/mL | >256 µg/mL | >256 µg/mL | >256 µg/mL | 32 µg/mL | 128 µg/mL | 16 µg/mL | MIC against all bacterial strains ([13]; span over the strains): ≥ 256 µg/mL
